The results in this text go back to article PMC7026418, “The kinase polypharmacology landscape of clinical PARP inhibitors” (Scientific Reports, 2020).

Holding throughout (test): biochemical
Holding throughout (design): DiscoveRx KINOMEscan active site-directed competition binding; percent of control kinase bound to immobilised ligand

One test has as its target T1, ULK2 (Homo sapiens, UniProt Q8IYT8).
T1 sequence (Q8IYT8 1-1036): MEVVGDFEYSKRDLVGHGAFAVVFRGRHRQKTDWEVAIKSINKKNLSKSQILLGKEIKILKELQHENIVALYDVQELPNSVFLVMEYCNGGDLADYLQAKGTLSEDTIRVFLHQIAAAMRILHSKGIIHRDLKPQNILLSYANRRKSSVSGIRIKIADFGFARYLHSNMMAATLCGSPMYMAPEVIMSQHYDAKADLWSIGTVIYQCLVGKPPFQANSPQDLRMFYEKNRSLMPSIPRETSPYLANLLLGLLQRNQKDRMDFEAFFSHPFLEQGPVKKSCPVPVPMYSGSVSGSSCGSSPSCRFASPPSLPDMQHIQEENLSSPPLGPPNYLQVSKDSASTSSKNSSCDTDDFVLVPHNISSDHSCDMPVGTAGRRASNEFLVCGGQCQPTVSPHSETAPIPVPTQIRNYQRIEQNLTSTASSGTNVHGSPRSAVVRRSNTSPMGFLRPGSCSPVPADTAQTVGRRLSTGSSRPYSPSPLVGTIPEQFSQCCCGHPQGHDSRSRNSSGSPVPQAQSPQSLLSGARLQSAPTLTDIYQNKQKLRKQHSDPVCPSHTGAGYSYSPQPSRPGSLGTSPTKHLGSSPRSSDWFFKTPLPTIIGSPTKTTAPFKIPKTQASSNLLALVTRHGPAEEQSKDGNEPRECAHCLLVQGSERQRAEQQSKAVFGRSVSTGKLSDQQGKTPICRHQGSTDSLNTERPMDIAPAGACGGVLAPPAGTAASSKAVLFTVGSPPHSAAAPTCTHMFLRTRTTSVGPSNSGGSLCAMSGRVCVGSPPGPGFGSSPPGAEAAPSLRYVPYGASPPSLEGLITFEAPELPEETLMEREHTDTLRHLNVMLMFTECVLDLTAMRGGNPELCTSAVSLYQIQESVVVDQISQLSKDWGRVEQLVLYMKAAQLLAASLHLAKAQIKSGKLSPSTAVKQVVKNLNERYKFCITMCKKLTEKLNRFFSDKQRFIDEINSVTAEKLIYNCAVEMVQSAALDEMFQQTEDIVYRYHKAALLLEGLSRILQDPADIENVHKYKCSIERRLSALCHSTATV

The next test addresses T2, BMPR2 (Homo sapiens, UniProt Q13873).
T2 sequence (Q13873 1-1038): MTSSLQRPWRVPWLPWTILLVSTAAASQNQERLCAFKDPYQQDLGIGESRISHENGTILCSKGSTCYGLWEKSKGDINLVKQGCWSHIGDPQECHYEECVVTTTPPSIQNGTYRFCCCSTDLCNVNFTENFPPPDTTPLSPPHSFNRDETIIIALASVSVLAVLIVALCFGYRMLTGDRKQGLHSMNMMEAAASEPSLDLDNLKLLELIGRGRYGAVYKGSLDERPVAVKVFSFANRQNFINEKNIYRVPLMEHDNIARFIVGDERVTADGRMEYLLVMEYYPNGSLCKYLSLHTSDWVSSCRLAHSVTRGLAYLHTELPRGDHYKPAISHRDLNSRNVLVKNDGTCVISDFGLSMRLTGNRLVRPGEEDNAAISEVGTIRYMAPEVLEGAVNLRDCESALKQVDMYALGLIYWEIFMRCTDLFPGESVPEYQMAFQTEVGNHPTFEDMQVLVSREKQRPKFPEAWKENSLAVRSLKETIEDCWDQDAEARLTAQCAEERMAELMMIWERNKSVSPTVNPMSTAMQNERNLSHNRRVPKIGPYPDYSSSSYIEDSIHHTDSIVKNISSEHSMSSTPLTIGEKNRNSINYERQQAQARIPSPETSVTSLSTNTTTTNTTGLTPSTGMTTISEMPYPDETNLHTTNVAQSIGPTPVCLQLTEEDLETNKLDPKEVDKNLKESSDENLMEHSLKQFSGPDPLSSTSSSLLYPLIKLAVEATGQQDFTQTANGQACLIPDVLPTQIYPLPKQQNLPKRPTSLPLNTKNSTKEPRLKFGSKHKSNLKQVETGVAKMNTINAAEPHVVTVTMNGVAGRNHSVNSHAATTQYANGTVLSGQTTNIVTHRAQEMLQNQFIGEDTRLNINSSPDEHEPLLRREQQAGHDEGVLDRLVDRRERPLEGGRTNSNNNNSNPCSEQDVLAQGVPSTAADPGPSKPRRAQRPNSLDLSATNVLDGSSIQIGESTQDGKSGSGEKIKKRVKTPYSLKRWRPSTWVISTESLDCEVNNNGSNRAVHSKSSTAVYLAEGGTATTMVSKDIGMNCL

Test [1] deals with T3, ABL1(F317L)-phosphorylated (Homo sapiens, UniProt P00519, F317L).
T3 construct: phosphorylated

A further test addresses T4, ACVR1 (Homo sapiens, UniProt Q04771).
T4 sequence (Q04771 1-509): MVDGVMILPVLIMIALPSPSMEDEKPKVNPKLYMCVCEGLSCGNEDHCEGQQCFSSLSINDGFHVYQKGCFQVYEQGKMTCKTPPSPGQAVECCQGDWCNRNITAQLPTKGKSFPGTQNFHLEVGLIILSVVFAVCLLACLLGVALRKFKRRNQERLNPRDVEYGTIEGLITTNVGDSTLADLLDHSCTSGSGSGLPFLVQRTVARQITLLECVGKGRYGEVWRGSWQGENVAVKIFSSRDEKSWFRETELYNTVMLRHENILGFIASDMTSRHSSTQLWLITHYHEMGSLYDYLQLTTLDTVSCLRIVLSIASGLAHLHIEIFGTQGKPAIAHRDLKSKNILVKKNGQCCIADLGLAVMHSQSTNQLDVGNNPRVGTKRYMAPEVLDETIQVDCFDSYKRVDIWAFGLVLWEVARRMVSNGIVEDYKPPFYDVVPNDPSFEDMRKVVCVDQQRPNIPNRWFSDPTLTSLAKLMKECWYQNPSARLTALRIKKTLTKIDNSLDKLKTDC

The target in another test is PIP5K1A (Homo sapiens, UniProt Q99755).
Setting [2] is: read-out: Rucaparib / %Ctrl @ 10000nM, binding competition, % of control.
Setting [3] is: read-out: Talazoparib (BMN 673) / %Ctrl @ 10000nM.
Where [4] appears, read: read-out: Niraparib (MK-4827) / %Ctrl @ 10000nM.
Where [5] appears, read: read-out: Olaparib / %Ctrl @ 10000nM.

Molecules are shown by their SMILES. Like-named read-outs stand apart in the source and are kept apart here.

Chain of PIP5K1A (Q99755 whole entry): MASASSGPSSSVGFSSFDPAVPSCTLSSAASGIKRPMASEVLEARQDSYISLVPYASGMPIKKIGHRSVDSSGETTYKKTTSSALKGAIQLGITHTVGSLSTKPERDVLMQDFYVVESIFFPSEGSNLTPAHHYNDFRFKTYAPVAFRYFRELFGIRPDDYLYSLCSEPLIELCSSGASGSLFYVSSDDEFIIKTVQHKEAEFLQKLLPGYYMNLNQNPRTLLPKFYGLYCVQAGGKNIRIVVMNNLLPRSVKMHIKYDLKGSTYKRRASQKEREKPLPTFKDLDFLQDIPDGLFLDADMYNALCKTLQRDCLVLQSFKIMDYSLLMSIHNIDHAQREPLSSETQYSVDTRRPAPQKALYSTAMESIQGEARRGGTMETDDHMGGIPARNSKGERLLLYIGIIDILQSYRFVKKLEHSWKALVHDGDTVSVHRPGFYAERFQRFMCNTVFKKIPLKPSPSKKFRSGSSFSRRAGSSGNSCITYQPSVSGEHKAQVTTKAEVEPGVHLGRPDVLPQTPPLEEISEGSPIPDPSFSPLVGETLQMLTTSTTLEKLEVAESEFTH
T3 sequence (P00519 whole entry F317L): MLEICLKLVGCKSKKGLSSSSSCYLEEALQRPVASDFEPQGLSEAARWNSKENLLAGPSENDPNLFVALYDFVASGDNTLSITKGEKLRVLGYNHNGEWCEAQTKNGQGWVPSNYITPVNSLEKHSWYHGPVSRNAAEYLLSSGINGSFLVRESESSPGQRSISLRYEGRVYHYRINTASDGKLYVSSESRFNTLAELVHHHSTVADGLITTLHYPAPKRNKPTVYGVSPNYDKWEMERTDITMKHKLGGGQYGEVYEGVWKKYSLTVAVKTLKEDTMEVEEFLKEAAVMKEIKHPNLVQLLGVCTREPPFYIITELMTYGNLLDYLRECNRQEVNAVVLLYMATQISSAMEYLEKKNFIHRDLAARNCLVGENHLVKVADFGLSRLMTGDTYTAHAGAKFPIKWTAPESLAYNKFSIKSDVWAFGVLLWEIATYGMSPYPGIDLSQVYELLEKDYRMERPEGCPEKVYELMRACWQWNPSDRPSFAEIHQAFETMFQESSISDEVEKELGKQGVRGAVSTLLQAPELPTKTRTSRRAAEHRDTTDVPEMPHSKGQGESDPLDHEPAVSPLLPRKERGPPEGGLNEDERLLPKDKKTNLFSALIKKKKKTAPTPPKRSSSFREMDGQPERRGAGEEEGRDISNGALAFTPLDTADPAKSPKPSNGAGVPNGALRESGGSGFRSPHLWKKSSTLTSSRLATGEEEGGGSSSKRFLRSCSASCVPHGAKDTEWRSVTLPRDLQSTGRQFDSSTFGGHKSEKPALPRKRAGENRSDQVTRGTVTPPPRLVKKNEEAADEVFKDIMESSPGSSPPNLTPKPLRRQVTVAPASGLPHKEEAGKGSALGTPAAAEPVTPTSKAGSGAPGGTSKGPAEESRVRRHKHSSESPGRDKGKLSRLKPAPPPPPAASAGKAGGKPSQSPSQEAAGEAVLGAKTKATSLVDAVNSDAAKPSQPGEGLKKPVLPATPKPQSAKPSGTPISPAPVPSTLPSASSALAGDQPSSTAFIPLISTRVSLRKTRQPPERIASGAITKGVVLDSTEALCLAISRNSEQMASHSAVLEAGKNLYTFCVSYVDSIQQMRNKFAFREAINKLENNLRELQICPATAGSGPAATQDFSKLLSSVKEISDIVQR

On to `CNCc1ccc(-c2[nH]c3cc(F)cc4c3c2CCNC4=O)cc1` [Rucaparib], for which the percent of control binding at 10 µM at ULK2 (setting [2]) came out at 74%; on BMPR2 (setting [2]) it was 83%; in test [1] (setting [2]) it was 74%; on ACVR1 (setting [2]) it was 92%; at PIP5K1A (setting [2]), 100%.
Take `Cn1ncnc1[C@H]1c2n[nH]c(=O)c3cc(F)cc(c23)N[C@@H]1c1ccc(F)cc1` [Talazoparib]: the percent of control binding at 10 µM at ULK2 (setting [3]) came out at 100%; on BMPR2 (setting [3]), 100%; in test [1] (setting [3]) it was 50%; on ACVR1 (setting [3]), 95%; on PIP5K1A (setting [3]), 88%.
Consider `NC(=O)c1cccc2cn(-c3ccc([C@@H]4CCCNC4)cc3)nc12` [Niraparib], for which the percent of control binding at 10 µM on ULK2 (setting [4]) was determined as 93%; at BMPR2 (setting [4]), 96%; in test [1] (setting [4]), 100%; at ACVR1 (setting [4]), 83%; at PIP5K1A (setting [4]), 100%.
As to `O=C(c1cc(Cc2n[nH]c(=O)c3ccccc23)ccc1F)N1CCN(C(=O)C2CC2)CC1` [Olaparib], the percent of control binding at 10 µM turned out to be 85% at ULK2 (setting [5]); 80% at BMPR2 (setting [5]); 95% in test [1] (setting [5]); 96% at ACVR1 (setting [5]); 100% on PIP5K1A (setting [5]).
